Test results as given in article doi:10.1101/2023.10.24.563163v2, “Targeting cancer with small molecule pan-KRAS degraders” (biorxiv, 2024).

Assays:
A375 = test: cells; set-up: pERK levels by capillary electrophoresis; conditions: Homo sapiens, A-375, 6 h
Procedure: (§1) Protein Detection by Capillary Electrophoresis Cells (50 000) were seeded the day before treatment into 96-well clear-flat bottom plates and incubated overnight (37 °C, humidified tissue culture incubator, 5% CO2). Compounds were added from DMSO stock solution using a digital dispenser and cells are incubated at 37 °C as specified (24 hours for KRAS degradation, 6 hours for determination of pERK levels). At the end of the incubation, medium was removed, cells washed with ice cold PBS, PBS removed and 50 µL lysis buffer (Meso Scale Discovery #R60TX-2) supplemented with 1:100 protease inhibitor solution, 1:100 phosphatase inhibitor I, 1:100 phosphatase inhibitor II (Meso Scale Discovery #R70AA-1), 0.5 µL/mL Benzonase (Novagen #70664-3) and 10 mM dithiothreitol added to each well. Plates with lysis buffer were immediately transferred to -80 °C freezer for at least 2 hours and then thawed on ice. Lysates were transferred to a 96 well V-bottom plate and insoluble debris was pelleted by centrifugation for 20 min. at 4 000 rpm. 40 µL of the supernatant were transferred to a fresh Eppendorf PCR plate. Analysis of protein levels was conducted using the Wes System, ProteinSimple (https://www.bio-techne.com/) as specified by the manufacturer. Briefly, Wes Master Mix (12-230 kDa WES Separation Module, 8 × 25 capillary cartridges, ProteinSimple #SM-W004) and molecular weight markers were prepared as specified in the manufacturer’s recommendations. To detect primary antibodies, anti-rabbit (Protein Simple #DM-001) or anti-mouse (Protein Simple #DM-002) detection modules were used. 7.2 µL lysate + 1.8 µL master mix were combined and heated to 95 °C for 5 min. Th

HEK293 = test: cells; set-up: pERK levels by capillary electrophoresis; conditions: Homo sapiens, HEK293, 6 h
Procedure: as §1

NCI-H358 = test: cells; set-up: pERK levels by capillary electrophoresis; conditions: Homo sapiens, NCI-H358, 6 h
Procedure: as §1

SW620 = test: cells; set-up: pERK levels by capillary electrophoresis; conditions: Homo sapiens, SW-620, 6 h
Procedure: as §1

KRAS^G12D [1] = target: T1, KRAS^G12D (Homo sapiens, UniProt P01116, G12D); test: cell-based; set-up: endogenous; KRAS degradation by capillary electrophoresis immunodetection; conditions: GP5d; read-out: Dmax 24 h GP5d [%]
T1 sequence (P01116 whole entry G12D): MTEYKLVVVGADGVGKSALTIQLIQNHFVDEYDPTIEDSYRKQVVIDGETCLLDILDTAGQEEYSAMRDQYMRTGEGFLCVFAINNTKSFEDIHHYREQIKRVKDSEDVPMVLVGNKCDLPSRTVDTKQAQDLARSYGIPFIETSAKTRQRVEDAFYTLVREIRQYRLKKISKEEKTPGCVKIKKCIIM
Procedure: as §1, with “min.” for “min. Th”

KRAS^G12D [2] = target: T1, KRAS^G12D; set-up: endogenous; KRAS degradation by capillary electrophoresis immunodetection; conditions: degrader; read-out: DC50 24 h GP5d
Procedure: as §1, with “min.” for “min. Th”

Row | IC50 (A375) [µM] | IC50 (NCI-H358) [µM] | IC50 (SW620) [µM] | Dmax (KRAS^G12D [1]) [%] | DC50 (KRAS^G12D [2]) [µM] | SMILES | IC50 (HEK293) [µM]
1 | > 1 | > 1 | > 1 | – | – | Cc1ncsc1-c1ccc(CNC(=O)C2CC(O)CN2C(=O)C(c2cc(OCCCCN3CCCN(c4nccc(-c5noc(C6(C)CCCc7sc(N)c(C#N)c76)n5)n4)C(C)C3)no2)C(C)C)cc1 (centres unmarked) [compound 5] | > 1
2 | – | – | – | 99 | 0.0021 | Cc1ncsc1-c1ccc([C@H](CO)NC(=O)[C@@H]2C[C@@H](O)CN2C(=O)[C@H](C(C)C)n2cc(OCCCCN3CCCN(c4nccc(-c5noc([C@@]6(C)CCCc7sc(N)c(C#N)c76)n5)n4)[C@@H](C)C3)nn2)cc1 [compound 7, ACBI3] | –

Second part, the compound before the results:

Row | SMILES | IC50 (A375) [µM] | IC50 (NCI-H358) [µM] | IC50 (SW620) [µM] | Dmax (KRAS^G12D [1]) [%] | DC50 (KRAS^G12D [2]) [µM] | IC50 (HEK293) [µM]
3 | Cc1ncsc1-c1ccc(CNC(=O)[C@@H]2C[C@@H](O)CN2C(=O)[C@@H](NC(=O)COCCCN2CCCN(c3nccc(-c4noc([C@@]5(C)CCCc6sc(N)c(C#N)c65)n4)n3)[C@@H](C)C2)C(C)(C)C)cc1 [compound 2] | – | – | – | 100 | 0.607 | –
4 | Cc1ncsc1-c1ccc(CNC(=O)[C@@H]2C[C@@H](O)CN2C(=O)[C@@H](NC(=O)CCCCCN2CCCN(c3nccc(-c4noc([C@@]5(C)CCCc6sc(N)c(C#N)c65)n4)n3)[C@@H](C)C2)C(C)(C)C)cc1 [compound 3] | > 1 | > 1 | 0.708 | 99 | 0.0318 | > 1
5 | Cc1ncsc1-c1ccc(CNC(=O)[C@@H]2C[C@@H](O)CN2C(=O)[C@@H](c2cc(OCCCCN3CCCN(c4nccc(-c5noc([C@@]6(C)CCCc7sc(N)c(C#N)c76)n5)n4)[C@@H](C)C3)no2)C(C)C)cc1 [compound 4] | > 1 | 0.0082 | 0.0092 | 100 | 0.0009 | > 1
